Where two headings read alike, the source gives them in different places.
Experiments:
Arabidopsis thaliana [1] = assay: HTPS (high throughput on soil) - Dicot - Post-emergence; type: in vivo; settings: N/A: not active; for Emax: read-out: HTPS - Dicot - Post Max effect; for HTPS - Dicot - Post ED50: from normalized green area
Experimental: (§1) Arabidopsis thaliana seeds were sown in 96 well plates filled with irrigated Sweet sand (10%>clay) that is washed from salts and minerals using tap water. 5-10 seeds were sown in the center of each well. 7-8 days post sowing, at 2 true leaves stage, thinning out was performed to ensure that compound application is done on a single plant per well. The plates were placed in a controlled greenhouse in a random order inside a bath which allows flooding irrigation with tap water supplemented with a fertilizer. Applied compounds were dissolved into a final solution of 50% acetone, 49.9% DDW, 0.1% tween-20. A 96 well plate was used as a stock plate for preparing application solutions for 8 repeats. Each row contained different concentrations per chemical. Maximal concentration for application was 1.5 Kg/Ha and dilution factor is 2.5. Chemical application was performed one day after thinning out in a chemical hood. 5 μL applied on first two true leaves in each well using 12 channel pipettes. Data collection: RGB (red, green, blue) data for green area per well was documented using camera. Data is collected at a few time points during the experiment: one day after thinning and before chemical application, two-, six- or nine-days post application. During the last two documentations, visual phenotyping was performed. Data analysis: Given RGB results and visual phenotype scores, a student t-test conducted to compare between treatment and control performance for continuous data (RGB) and Fisher exact test to analyze the non-continuous data (phenotypic scores). Dose-Response curves are generated for each treatment to infer ED50 and max. inhibition parameters, using treatment's log concentration range as the […] variable and normalized green area. Plate imaging performed at 11 and 18 DAA. RGB data for green area per well was documented and used to extract % inhibition. Dose-Response curves were built for each treatment to infer ED50, ED75 and ED90 parameters, using treatment's log concentration range as the independent variable and normalized green area as the dependent variable. Treatments were compared to controls performance given RGB results and using student's t-test (p-val≤0.05).

Arabidopsis thaliana [2] = assay: HTPS - Dicot - Pre-emergence; type: in vivo; settings: N/A: not active; for Emax: read-out: HTPS - Dicot - Pre Max effect
Experimental: as §1, with “area. These experiments are conducted similarly except that either Arabidopsis thaliana or Eragrostis teff seeds were sowed (5-10 or 5-7, respectively), plant thinning out was not performed, compound dissolved into a final solution of 50% acetone, 49.9% DDW, compound application was done at 30 μL volume per well directly on sowed soil before plant emergence and data was collected 10 or 7 days after chemical application on dicot or monocot plants, respectively.” for “area.”

POAAN = assay: In-planta LTP pre-emergence, visual phenotype; type: in vivo, Poa annua; settings: monocot; for pest or weed control at 2000 g/ha: Poa annua, 432 h, read-out: IG Inhibited growth (% effect)
Experimental: (§2) A basic panel of 8 weed species (Table 3) were sowed in 4×4×7 cm plastic pots containing inert sand (Sweet sand), intensively washed using osmosis water. Each specie was sowed in a separate pot. In each pot 10-15 seeds were sowed according to the specie viability. Sowing was performed one day before application. The plants were grown for 21 days in a controlled greenhouse (26±2° C. day 20±2° C. night). Hood irrigation (tap water+Shefer 5:3:8 8 mM) was given at a 50% water content by weight. Compounds were soluble in water (DDW), and commercial herbicide control was soluble in formulation B (Table 4). Application was conducted with an industrial sprayer (TeeJet 6502E nozzle) at a rate of 2 kg/ha and spray volume of […]. Pre-emergence advanced dose response experiment application was conducted at six rates between 1-0.0312 kg/ha and spray volume of […]. Percentage of emergence was evaluated at 15 DAA. Visual phenotyping was recorded using a scale of 0-6 (0: no visible effect, 6: maximum effect) at 18 DAA. All experiments included an untreated control, a solvent control and a positive control (commercial herbicide A.I.). Statistical analysis for visual phenotyping determined by a median value of ≥3.5 and Fisher test (pval≤0.05). Statistical analysis for plant emergence determined by % emergence ≥50 and T test (pval≤0.05), as well as Wilcox test (pval≤0.05).

SETVI = assay: In-planta LTP pre-emergence, visual phenotype; type: in vivo, Setaria viridis; settings: monocot; for pest or weed control at 2000 g/ha: Setaria viridis, 432 h
Experimental: as §2

AMAPA [3] = assay: In-planta LTP pre-emergence, visual phenotype; type: in vivo, Amaranthus palmeri; settings: dicot; for pest or weed control at 2000 g/ha: Amaranthus palmeri, 432 h, read-out: IG Inhibited growth (% effect)
Experimental: as §2

Eragrostis teff = assay: HTPS - Monocot - Pre-emergence; type: in vivo; settings: N/A: not active; for Emax: read-out: HTPS - Monocot - Pre Max effect
Experimental: as §1, with “area. These experiments are conducted similarly except that either Arabidopsis thaliana or Eragrostis teff seeds were sowed (5-10 or 5-7, respectively), plant thinning out was not performed, compound dissolved into a final solution of 50% acetone, 49.9% DDW, compound application was done at 30 μL volume per well directly on sowed soil before plant emergence and data was collected 10 or 7 days after chemical application on dicot or monocot plants, respectively.” for “area.”

[4] = in vitro thermal shift (binding of compound to the target); settings: thermal shift caused by binding of the compound to the (unnamed) target
AMAPA [5] = assay: In-planta LTP post-emergence, visual phenotype; type: in vivo, Amaranthus palmeri; settings: dicot
Experimental: A basic panel of eight weed species (Table 3) sowed in 4×4×7 cm plastic pots containing a garden mix (klasmann). Each specie was sowed in a separate pot. In each pot, 10-15 seeds were sowed according to the specie viability. Timing of application determined at a 1-2 true leaf stage. The plants grew for 30 days in a controlled greenhouse (26±2° C. day, 20±2° C. night). Hood irrigation (tap water+Shefer 5:3:8 8 mM) was given at a 50% water content by weight. Two days before application, the tested plants thinned down to three plants per pot. Compounds were soluble in water (DDW), and commercial herbicide control was soluble in formulation B (Table 4). Before application, 1% (v/v) crop oil and 0.02% (v/v) surfactant (Tergitol™ 15-5-7) were added to the solution. Application was conducted with an industrial sprayer (TeeJet 6502E nozzle) at a rate of 2 kg/ha and spray volume of […]. Plants were evaluated at 3 time points (4, 8, 12 days after application (DAA)). At each time point, visual phenotyping was recorded using a scale of 0-6 (0: no visible effect, 6: maximum effect). At 12 DAA, plants foliage was harvested, dried and weighed for dry weight analysis.
Post-emergence advanced dose response experiment included 4 species: SETVI, ECHCO, AMAPA, ABUTH (Tables 3, 5). Application was conducted at six rates between 0.6-0.0187 kg/ha and spray volume of […]. Plants were evaluated at 4 time points (6, 12, 18 and 26 DAA). At each time point, visual phenotyping was recorded using a scale of 0-6 (0: no visible effect, 6: maximum effect). At 26 DAA, plants foliage was harvested, dried and weighed for dry weight analysis.
Post-emergence advanced wide panel experiment included 24 weed species (Table 5). Application was conducted at 2 rates of 2 kg/ha and 0.25 kg/ha and spray volume of […]. Visual phenotyping was recorded at 4, 11, 17 and 20 DAA using a scale of 0-6 (0: no visible effect, 6: maximum effect). At 21 DAA, plants foliage was harvested, dried, and weighed for dry weight analysis. All experiments included an untreated control, a solvent control, and a positive control (commercial herbicide A.I.). Statistical analysis for visual phenotyping determined by a median value of ≥3.5 and Fisher test (pval≤0.05). Statistical analysis for dry weight determined by % inhibition ≥50 and T test (pval≤0.05), as well as Wilcox test (pval≤0.05).

EPPHL = assay: In-planta LTP pre-emergence, visual phenotype; type: in vivo, Euphorbia heterophylla; settings: dicot
Experimental: as §2

ABUTH = assay: In-planta LTP pre-emergence, visual phenotype; type: in vivo, Abutilon theophrasti; settings: dicot
Experimental: as §2

CHEAL = assay: In-planta LTP pre-emergence, visual phenotype; type: in vivo, Chenopodium album; settings: dicot
Experimental: as §2

ALOMY = assay: In-planta LTP pre-emergence, visual phenotype; type: in vivo, Alopecurus myosuroides; settings: monocot
Experimental: as §2

ECHCO = assay: In-planta LTP pre-emergence, visual phenotype; type: in vivo, Echinochloa colona; settings: monocot
Experimental: as §2

MATCA = assay: In-planta LTP pre-emergence, visual phenotype; type: in vivo, Matricaria chamomilla; settings: dicot
Experimental: as §2

DIGSA = assay: In-planta LTP pre-emergence, visual phenotype; type: in vivo, Digitaria sanguinalis; settings: monocot
Experimental: as §2

SOLNI = assay: In-planta LTP pre-emergence, visual phenotype; type: in vivo, Solanum nigrum; settings: dicot
Experimental: as §2

LOLPE = assay: In-planta LTP pre-emergence, visual phenotype; type: in vivo, Lolium perenne; settings: monocot
Experimental: as §2

[6] = read-out: DE Disturbed emergence (% effect)
[7] = read-out: IG Inhibited growth (% effect)

| Compound | in vitro Thermal Shift [4] | Emax (Arabidopsis thaliana [1]) | HTPS - Dicot - Post ED50 (Arabidopsis thaliana [1]) | HTPS - Dicot - Pre ED50 (Arabidopsis thaliana [2]) | Emax (Arabidopsis thaliana [2]) | pest or weed control at 2000 g/ha (POAAN) | pest or weed control at 2000 g/ha (SETVI; [6]) | pest or weed control at 2000 g/ha (SETVI; [7]) | pest or weed control at 2000 g/ha (AMAPA [3]) | HTPS - Monocot - Pre ED50 (Eragrostis teff) | Emax (Eragrostis teff) | DE Disturbed emergence (% effect) (POAAN) | other results |
| --- | --- | --- | --- | --- | --- | --- | --- | --- | --- | --- | --- | --- | --- |
| CC(CN)Oc1cccc(C(=O)O)c1 (stereo not drawn) [Compound 102] | 13 °C | 92% | 127 g/ha | 127 g/ha | 100% | 60% | 100% | 100% | 60% | 650 g/ha | 62% | – | – |
| CC(N)COc1cccc(C(=O)O)n1 (stereo not drawn) [Compound 116] | 16 °C | 100% | 3 g/ha | 10 g/ha | 100% | – | 100% | – | 80% | 10 g/ha | 100% | DE (100) % | BL Bleaching (% effect) (EPPHL): BL (80), %; DAB Disturbed apical bud (% effect) (EPPHL): DAB (80) %; IG Inhibited growth (% effect) (EPPHL): IG (60), %; BL Bleaching (% effect) (ABUTH): Bl (80), %; DAB Disturbed apical bud (% effect) (ABUTH): DAB (80) %; IG Inhibited growth (% effect) (ABUTH): IG (80), %; DAB Disturbed apical bud (% effect) (CHEAL): DAB (80) %; IG Inhibited growth (% effect) (CHEAL): IG (80), %; C Chlorosis (% effect) (AMAPA [3]): C^3 (60), %; DAB Disturbed apical bud (% effect) (AMAPA [3]): DAB (100) %; IG Inhibited growth (% effect) (ALOMY): IG (100), %; W Wilting (% effect) (ALOMY): W^5 (100) %; DE Disturbed emergence (% effect) (ECHCO): DE (100) %; BL Bleaching (% effect) (MATCA): BL^4 (40), %; DAB Disturbed apical bud (% effect) (MATCA): DAB (60) %; IG Inhibited growth (% effect) (MATCA): IG (80), %; DE Disturbed emergence (% effect) (DIGSA): DE (100) %; DAB Disturbed apical bud (% effect) (SOLNI): DAB^2 (80) %; IG Inhibited growth (% effect) (SOLNI): IG (80), %; DE Disturbed emergence (% effect) (LOLPE): DE (100) % |
| CC(N)COc1cncc(C(=O)O)n1 (stereo not drawn) [Compound 148] | 12 °C | 17% | – | – | 28% | 40% | 100% | 100% | – | – | 100% | – | DRD Disturbed root development (% effect) (POAAN): DRD (40) %; DRD Disturbed root development (% effect) (SETVI): DRD^7 (100), %; DRD Disturbed root development (% effect) (ALOMY): DRD (60) %; DE Disturbed emergence (% effect) (MATCA): DE (40) % |

Second part, led by results:

| in vitro Thermal Shift [4] | Compound | Emax (Arabidopsis thaliana [1]) | HTPS - Dicot - Post ED50 (Arabidopsis thaliana [1]) | HTPS - Dicot - Pre ED50 (Arabidopsis thaliana [2]) | Emax (Arabidopsis thaliana [2]) | pest or weed control at 2000 g/ha (POAAN) | pest or weed control at 2000 g/ha (SETVI; [6]) | pest or weed control at 2000 g/ha (SETVI; [7]) | pest or weed control at 2000 g/ha (AMAPA [3]) | HTPS - Monocot - Pre ED50 (Eragrostis teff) | Emax (Eragrostis teff) | DE Disturbed emergence (% effect) (POAAN) | other results |
| --- | --- | --- | --- | --- | --- | --- | --- | --- | --- | --- | --- | --- | --- |
| 16 °C | CC(N)COc1ccc(F)c(C(=O)O)c1 (stereo not drawn) [Compound 108] | 100% | 31 g/ha | 31 g/ha | 100% | 80% | 100% | 100% | 60% | 290 g/ha | 80% | DE (80) % | – |
| 14 °C | CC(N)COc1cc(Cl)cc(C(=O)O)c1 (stereo not drawn) [Compound 109] | – | – | – | – | 100% | 100% | – | 60% | 681 g/ha | 80% | DE (100), % | BL Bleaching (% effect) (AMAPA [5]): BL (40) % |

From patent publication US20240336567A1, “PESTICIDAL AND HERBICIDAL COMPOUNDS AND METHODS OF USE THEREOF” (AG Plenus Ltd, priority 2021, published 2024)
